Measured values taken from ChEMBL document CHEMBL1201862, “PubChem BioAssay data set” (2004).
Calls of active or inactive are those of the source.

How the values were obtained:
[1] = molecular target: T1, Endoribonuclease toxin MazF (Escherichia coli K-12, UniProt P0AE70); experiment: fluorescent RNA oligo signal without MazF, dose response, counter-screen for MazEF activator project, biochemical, fluorescence, single-stranded RNase substrate (AID 588502); assay type: functional
T1 sequence (P0AE70 whole entry): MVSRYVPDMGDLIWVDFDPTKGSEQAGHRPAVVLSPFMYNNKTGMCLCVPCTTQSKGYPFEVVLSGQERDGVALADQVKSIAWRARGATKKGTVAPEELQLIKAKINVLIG

[2] = molecular target: T1, Endoribonuclease toxin MazF; experiment: MazF toxin RNase activators, dose response, biochemical, fluorescence, single-stranded RNA substrate, uHTS hits (AID 588481); assay type: functional
CHO = experiment: cytotoxicity in TLR9-MyD88 CHO cells, dose response, cytotoxicity control for TLR9-MyD88 binding inhibitor project, cell-based, luminescence (AID 588339); assay type: functional, hamster; conditions: Cricetulus griseus;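 also: CHO cells stably coexpressing TLR9 and MyD88 fusions from primary screen; compound exposure lasted 48 hours before viability readout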
Beta Lactamase = Beta Lactamase (Pseudomonas aeruginosa, UniProt Q932Y6); experiment: beta-lactamase reporter inhibitor potency, dose response, artefact control for TLR9-MyD88 binding inhibitor project, BLA reporter cells, FRET fluorescence (AID 588341); assay type: cell-based;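 also: cell based assay in CHO-K1 cells stably expressing beta-lactamase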
Sequence of Beta Lactamase (Q932Y6 whole entry, the tested form may be a part): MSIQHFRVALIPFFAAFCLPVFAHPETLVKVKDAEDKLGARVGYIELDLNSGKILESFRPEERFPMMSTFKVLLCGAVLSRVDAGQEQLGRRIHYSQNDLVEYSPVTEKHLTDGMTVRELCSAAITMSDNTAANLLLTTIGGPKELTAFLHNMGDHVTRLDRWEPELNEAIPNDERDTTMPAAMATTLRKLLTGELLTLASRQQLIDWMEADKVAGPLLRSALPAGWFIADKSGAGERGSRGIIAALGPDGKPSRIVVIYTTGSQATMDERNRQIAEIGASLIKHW

Hexokinase-1 = molecular target: T2, Hexokinase-1 (Homo sapiens, UniProt P19367); experiment: SAR analysis of small molecule inhibitors of hexokinase domain containing I (HKDC1) in the hexokinase 1 selectivity assay. [Related pubchem assays (depositor defined):AID493160, AID493190]; assay type: functional
T2 sequence (P19367 whole entry): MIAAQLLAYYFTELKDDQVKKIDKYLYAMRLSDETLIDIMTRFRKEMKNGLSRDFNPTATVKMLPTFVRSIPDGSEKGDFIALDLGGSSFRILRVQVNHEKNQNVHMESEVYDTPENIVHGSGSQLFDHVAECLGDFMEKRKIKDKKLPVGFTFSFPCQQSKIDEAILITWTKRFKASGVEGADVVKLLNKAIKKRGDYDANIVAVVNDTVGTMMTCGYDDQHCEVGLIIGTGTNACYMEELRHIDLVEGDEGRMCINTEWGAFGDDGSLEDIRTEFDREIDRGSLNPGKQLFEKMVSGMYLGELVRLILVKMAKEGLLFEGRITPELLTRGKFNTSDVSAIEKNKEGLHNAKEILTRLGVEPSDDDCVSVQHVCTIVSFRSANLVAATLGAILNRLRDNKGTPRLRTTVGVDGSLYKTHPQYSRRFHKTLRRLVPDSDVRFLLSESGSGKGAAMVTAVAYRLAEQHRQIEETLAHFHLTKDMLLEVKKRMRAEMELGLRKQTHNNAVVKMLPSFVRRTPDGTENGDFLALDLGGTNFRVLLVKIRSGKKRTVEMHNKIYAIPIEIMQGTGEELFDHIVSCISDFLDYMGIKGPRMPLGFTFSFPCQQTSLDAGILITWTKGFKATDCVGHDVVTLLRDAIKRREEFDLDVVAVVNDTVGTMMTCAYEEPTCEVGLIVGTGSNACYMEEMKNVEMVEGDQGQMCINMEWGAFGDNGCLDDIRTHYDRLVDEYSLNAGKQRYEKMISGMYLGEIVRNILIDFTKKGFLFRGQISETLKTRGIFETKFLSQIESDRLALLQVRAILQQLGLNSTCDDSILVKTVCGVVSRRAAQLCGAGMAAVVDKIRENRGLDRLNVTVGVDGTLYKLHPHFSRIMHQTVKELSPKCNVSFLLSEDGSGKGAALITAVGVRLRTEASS

Hexokinase HKDC1 = molecular target: T3, Hexokinase HKDC1 (Homo sapiens, UniProt Q2TB90); experiment: SAR analysis of small molecule inhibitors of hexokinase domain containing I (HKDC1). [Related pubchem assays (depositor defined):AID493160, AID493190]; assay type: functional
T3 sequence (Q2TB90 whole entry): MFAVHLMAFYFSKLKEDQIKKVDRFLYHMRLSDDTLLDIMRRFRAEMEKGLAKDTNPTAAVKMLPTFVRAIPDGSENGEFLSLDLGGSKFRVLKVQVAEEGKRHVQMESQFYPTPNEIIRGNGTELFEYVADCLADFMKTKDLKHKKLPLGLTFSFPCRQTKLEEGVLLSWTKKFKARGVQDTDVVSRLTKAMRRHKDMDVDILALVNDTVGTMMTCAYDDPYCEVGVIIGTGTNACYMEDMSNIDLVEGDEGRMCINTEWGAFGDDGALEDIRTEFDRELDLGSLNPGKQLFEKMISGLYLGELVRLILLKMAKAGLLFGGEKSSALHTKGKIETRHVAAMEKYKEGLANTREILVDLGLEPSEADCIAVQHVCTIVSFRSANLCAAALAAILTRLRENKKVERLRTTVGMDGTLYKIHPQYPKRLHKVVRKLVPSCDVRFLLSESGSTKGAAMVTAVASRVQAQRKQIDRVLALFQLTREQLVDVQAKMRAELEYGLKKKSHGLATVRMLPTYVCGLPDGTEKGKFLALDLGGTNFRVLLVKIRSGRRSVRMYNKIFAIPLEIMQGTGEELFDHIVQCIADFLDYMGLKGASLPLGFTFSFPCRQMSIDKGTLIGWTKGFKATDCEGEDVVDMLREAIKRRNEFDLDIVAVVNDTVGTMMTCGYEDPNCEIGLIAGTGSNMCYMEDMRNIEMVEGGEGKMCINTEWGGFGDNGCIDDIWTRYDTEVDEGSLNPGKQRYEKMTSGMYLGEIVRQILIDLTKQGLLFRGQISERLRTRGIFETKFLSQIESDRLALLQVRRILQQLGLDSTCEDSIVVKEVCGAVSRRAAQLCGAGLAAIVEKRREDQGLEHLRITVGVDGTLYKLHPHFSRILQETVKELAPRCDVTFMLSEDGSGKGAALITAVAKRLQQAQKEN

[3] = molecular target: T4, Sentrin-specific protease 1 (Homo sapiens, UniProt Q9P0U3); experiment: potency of human SENP1 inhibitors, dose response, biochemical, kinetic FRET (AID 651697); assay type: functional; conditions: read-out: IC50_Mean
T4 sequence (Q9P0U3 whole entry): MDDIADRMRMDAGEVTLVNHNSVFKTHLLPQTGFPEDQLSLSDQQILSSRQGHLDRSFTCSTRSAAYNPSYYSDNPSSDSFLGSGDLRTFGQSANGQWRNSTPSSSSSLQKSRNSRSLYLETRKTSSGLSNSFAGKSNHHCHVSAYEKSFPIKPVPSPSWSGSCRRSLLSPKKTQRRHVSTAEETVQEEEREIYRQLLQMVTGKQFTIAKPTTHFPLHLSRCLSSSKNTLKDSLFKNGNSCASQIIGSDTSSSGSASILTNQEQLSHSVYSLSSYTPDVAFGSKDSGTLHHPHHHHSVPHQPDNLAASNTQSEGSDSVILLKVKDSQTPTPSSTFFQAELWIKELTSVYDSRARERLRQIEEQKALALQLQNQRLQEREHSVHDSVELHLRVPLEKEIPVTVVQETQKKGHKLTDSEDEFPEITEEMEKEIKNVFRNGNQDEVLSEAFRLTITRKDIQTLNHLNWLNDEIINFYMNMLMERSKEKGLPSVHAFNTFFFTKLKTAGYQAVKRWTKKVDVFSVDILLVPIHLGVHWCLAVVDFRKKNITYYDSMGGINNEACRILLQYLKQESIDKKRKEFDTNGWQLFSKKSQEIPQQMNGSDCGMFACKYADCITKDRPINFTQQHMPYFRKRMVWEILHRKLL

[4] = molecular target: T4, Sentrin-specific protease 1; experiment: Dose response confirmation of small molecule inhibitors of the catalytic domain of the SUMO protease, SENP1 in a FRET assay.; assay type: functional; conditions: read-out: IC50_Mean

Row | Structure (SMILES) | EC50 [1] | EC50 [2] | IC50 (Hexokinase-1) | IC50 (Hexokinase HKDC1) | other results
1 | Cc1cc(C)n(-c2nc3ccccc3nc2Nc2ccc3[nH]c(O)nc3c2)n1 | > 99 µM (inactive) | > 99 µM (inactive) |  |  | 
2 | CCC(=O)c1ccc(/C=C/c2nc3ccccc3n2C)o1 |  |  |  |  | IC50 (CHO): > 49.7 µM (inactive); IC50 (Beta Lactamase): 5.11 µM (active)
3 | O=C(Nc1cccc(C(F)(F)F)c1)c1cccc(NC(=O)c2ccc3[nH]nnc3c2)c1 |  |  | > 80 µM (inactive) | > 80 µM (inactive) | 
4 | Cc1ccc2nc3sc(C(=O)NCc4ccco4)c(N)c3cc2c1 | 65.2 µM (inactive) | > 99 µM (inactive) |  |  | IC50 [3]: 4.66 µM (active); IC50 [4]: 7.17 µM (active)
5 | O=C(Nc1cccc(C(F)(F)F)c1)c1cccc(NC(=O)c2cccc3ccccc23)c1 |  |  | > 80 µM (inactive) | > 80 µM (inactive) | 
